Assay results: US20080027088A1, “Imidazole-Based Hmg-Coa Reductase Inhibitors” (Warner-Lambert Company, LLC, priority 2004, published 2008)

Assays:
Format in all cases: in vivo
LCB1 and LCB2 mRNA = assay: SPT gene expression (LCB1, LCB2 mRNA) in liver by RT-PCR; details: 0.3 mg/kg/day diet admix, 12 weeks, Western diet-fed ApoE KO mice
Protocol: SPT expression and activity—Total RNA was isolated from liver and aorta using Trizol (Invitrogen, Calif.). LCB1 and LCB2 mRNA levels were measured by real-time (RT) polymerase chain reaction (PCR) on ABI Prism 7900HT Sequence Detection System (Applied Biosystems, Foster City, Calif.). The following primers and probe sets were utilized: LCB1, forward primer, 5′-CCGCTCCTTCGTGGTTGA-3′: reverse primer, 5′-[…]-3′: probe, 5′FAM-[…]-3′; LCB2, forward primer, 5′-[…]-3′, reverse primer, 5′-CCTCAGGATCCAGGCCM-3′, probe, 5′FAM-[…]-3′. The optimum number of cycles was set for each gene product with uniform amplification. Each mRNA level was expressed as a ratio to 18s ribosomal RND or as a ratio to GAPDH RNA.
FIGS. 1-A, 1-B, 1-C, 1-D and 1-E. SPT gene expression and enzyme activity. Mice were treated with 0.3 mg/kg/day myriocin for 12 weeks by mixing with Western diet chow. Liver was isolated and total mRNA and cell-free homogenate were prepared. SPT mRNA expression was quantified by quantitative RT-PCR. Expression was described as a ratio of LCB1 (A) or LCB2 (B) mRNA to 18s RNA or to rodent GAPDH RNA (n=5, P>0.05). SPT activity of cell-free homogenate (C) was measured with ^14C-labeled Serine and palmitoyl-coenzyme A as substrates and analyzed by TLC. Relative amounts of 3-ketosphinganine were determined by densitometry scanning. The values reported are mean±SEM (n=3, *P<0.05).

[1] = system: ApoE KO mice fed a Western diet; assay: Plasma and liver sphingomyelin by LC/MS, 4 weeks
Protocol: Animal experiments—Male C57BI/6J and ApoE KO mice on C57BI/6J background were obtained from the Jackson Laboratory (Bar Harbor, Me.) or Taconic (Germantown, N.Y.) (Plaque formation in ApoE KO mice is lipid-driven (A. S. Plump et al., Cell. 1992;71 (2):343-53)). Myriocin was mixed with Western diet containing 0.21% cholesterol and 21% fat. 8-12-week-old mice received 0.3 mg myriocin/kg/day for 12 weeks (Table 1). 10-12 week-old ApoE KO mice (n=8) were pre-fed a western diet for 2 weeks and mice received various concentrations of myriocin for 4 weeks in diet admix. Control groups consisted of ApoE KO mice fed normal chow or Western diet without myriocin, and normal chow-fed C57BI/6J mice. Body weight and chow feeding was measured every week to examine the food consumption. For the femoral artery cuff model, 8-10 week-old male ApoE KO mice were anethetized and the right femoral artery was dissected from its surroundings. […]
Analysis of Sphingolipids and Phospholipids by LC/MS and HPLC—Total lipids were extracted by the modified method of Bligh-Dyer extraction (E. G. Bligh and W. J. Dyer, Can. J. Med. Sci. 1959;37:911-917; and D. K. Perry, A. Bielawska and Y. A. Hannun, Methods Enzymol. 2000;312:22-31). A Micromass (Waters Corp., Milford, Mass.) Quattro Ultima tandem quadrupole mass spectrometer with a standard Z-spray™ ion source, set to electrospray positive ionization mode, with MassLynx™ version 3.5 operating software, was used for all quantitative determinations. […] The following ion transitions were used for quantification: sphingomyelin (704→184 m/z), sphinganine (302→284 m/z), ceramide (566→264 m/z) and psychosine (462→282 m/z) as an internal standard. […]
The liquid chromatography system was composed of twin Shimadzu (Columbia, Md.) LC-10ADvp HPLC pumps with a SCL-10Avp controller (flow rate 0.2 mL/minute), and a LEAP Technologies (Carrboro, N.C.) CTC PAL autosampler. For the quantitative method, the analytical column was a Phenomenex (Torrance, Calif.) Polar-RP (2.0×150 mm, 4 μm) with a MetaChem (Torrance, Calif.) MetaGuard Polaris C8 2.0 mm direct connect (5 μm) guard column. […]

[2] = system: ApoE KO mice fed a Western diet; assay: Incorporation of T lymphocytes into lesion of aortic root; details: 12 weeks
Protocol: For histological analysis, the mice were perfused and fixed in Zinc-Tris fixative. Paraffin embedded sections were stained with Masson's Trichrome. Intimal macrophages were immunohistochemically stained using MAC-2 antibody (clone M3/38 from Cedarlane Laboratories Limited) counterstained with Verhoeff elastic stain. T-lymphocytes were immunohistochemically stained with rat CD3 antibody (clone CD3-12, Serotec). Lesion thickness and area occupied by macrophages were determined using Image Pro Plus software. FIG. 14. Incorporation of T lymphocytes into lesion of aortic root. Cross section of aortic root was stained by rat CD3 antibody and developed by diaminobenzidine (brown color) to detect incorporated T lymphocytes. Sections were counterstained with Harris hematoxylin (blue). T-lymphocyte incorporation was quantified by measuring number of intimal T lymphocytes in aortic root (FIG. 14). Values are mean±SEM (n=5; *P<0.05, Western diet vs standard chow; #P<0.05, Western diet plus myriocin vs standard chow). Bar represents 50 μm.

Q: Which “effect on expression of LCB1 and LCB2 mRNA in the liver” value (LCB1 and LCB2 mRNA) does the source give for `CCCCCCC(=O)CCCCCC/C=C/C[C@@H](O)[C@H](O)[C@@](N)(CO)C(=O)O` [myriocin] here?
A: no effect

Q: What about the “liver SM levels decreased, maximum” value ([1]; 0.1 mg/kg/day) of the same compound?
A: 46%

Q: What about the “liver SM levels” value ([1]; 1 mg/kg/day) of the same compound?
A: comparable to the non-treated group

Q: What about the “plasma SM levels lowered (LC/MS)” value ([1]; 1 mg/kg/day) of the same compound?
A: 70%

Q: And the “accumulation of T cells in lesion of aortic root” value [2]?
A: not affected
